Experimental data as given in PubChem BioAssay (NCI).
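Exposure lasted 48 hours, with cells grown in 96-well plates and compounds tested at five concentrations. TGI: total growth inhibition.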

How the values were obtained:
Assay in all cases: NCI anticancer screen, dose series, 48 h
SW-620 colon = system: SW-620 colon
SK-MEL-5 melanoma = system: SK-MEL-5 melanoma
CAKI-1 renal = system: CAKI-1 renal
NCI-H460 lung = system: NCI-H460 lung
MOLT-4 leukemia = system: MOLT-4 leukemia
UACC-257 melanoma = system: UACC-257 melanoma
COLO 205 colon = system: COLO 205 colon
NCI-H226 lung = system: NCI-H226 lung
DLD-1 colon = system: DLD-1 colon
HL-60(TB) leukemia = system: HL-60(TB) leukemia
MALME-3M melanoma = system: MALME-3M melanoma
TK-10 renal = system: TK-10 renal
HT29 colon = system: HT29 colon
RXF 393 renal = system: RXF 393 renal
HCT-15 colon = system: HCT-15 colon
DMS 273 small cell lung = system: DMS 273 small cell lung
OVCAR-4 ovarian = system: OVCAR-4 ovarian
HCT-116 colon = system: HCT-116 colon
OVCAR-5 ovarian = system: OVCAR-5 ovarian
RXF-631 renal = system: RXF-631 renal
SF-268 CNS = system: SF-268 CNS
HOP-62 NSCLC = system: HOP-62 NSCLC
RPMI-8226 leukemia = system: RPMI-8226 leukemia
DMS 114 small cell lung = system: DMS 114 small cell lung
SK-MEL-2 melanoma = system: SK-MEL-2 melanoma
HOP-92 NSCLC = system: HOP-92 NSCLC
CCRF-CEM leukemia = system: CCRF-CEM leukemia
SNB-78 CNS = system: SNB-78 CNS
XF 498 CNS = system: XF 498 CNS
786-0 renal = system: 786-0 renal
SK-OV-3 ovarian = system: SK-OV-3 ovarian
HOP-18 NSCLC = system: HOP-18 NSCLC
A498 renal = system: A498 renal
LOX IMVI melanoma = system: LOX IMVI melanoma
A549 NSCLC = system: A549 NSCLC
SR leukemia = system: SR leukemia
SNB-75 CNS = system: SNB-75 CNS
KM12 colon = system: KM12 colon
U251 CNS = system: U251 CNS
KM20L2 colon = system: KM20L2 colon
SN12C renal = system: SN12C renal
SK-MEL-28 melanoma = system: SK-MEL-28 melanoma
SF-295 CNS = system: SF-295 CNS
HCC-2998 colon = system: HCC-2998 colon
ACHN renal = system: ACHN renal
SNB-19 CNS = system: SNB-19 CNS
LXFL 529 NSCLC = system: LXFL 529 NSCLC
M14 melanoma = system: M14 melanoma
NCI-H23 lung = system: NCI-H23 lung
NCI-H522 lung = system: NCI-H522 lung
IGROV1 ovarian = system: IGROV1 ovarian
OVCAR-8 ovarian = system: OVCAR-8 ovarian
K-562 leukemia = system: K-562 leukemia
SF-539 CNS = system: SF-539 CNS
EKVX NSCLC = system: EKVX NSCLC
UO-31 renal = system: UO-31 renal

O=[N+]([O-])c1nccn1COCCO
TGI (SW-620 colon): > 100 µM | TGI (SK-MEL-5 melanoma): > 100 µM | TGI (CAKI-1 renal): > 100 µM | TGI (NCI-H460 lung): > 100 µM | TGI (MOLT-4 leukemia): > 100 µM | TGI (UACC-257 melanoma): > 100 µM | TGI (COLO 205 colon): > 100 µM | TGI (NCI-H226 lung): > 100 µM | TGI (DLD-1 colon): > 100 µM | TGI (HL-60(TB) leukemia): > 100 µM | TGI (MALME-3M melanoma): > 100 µM | TGI (TK-10 renal): > 100 µM | TGI (HT29 colon): > 100 µM | TGI (RXF 393 renal): > 100 µM | TGI (HCT-15 colon): > 100 µM | TGI (DMS 273 small cell lung): > 100 µM | TGI (OVCAR-4 ovarian): > 100 µM | TGI (HCT-116 colon): > 100 µM | TGI (OVCAR-5 ovarian): > 100 µM | TGI (RXF-631 renal): > 100 µM | TGI (SF-268 CNS): > 100 µM | TGI (HOP-62 NSCLC): > 100 µM | TGI (RPMI-8226 leukemia): > 100 µM | TGI (DMS 114 small cell lung): > 100 µM | TGI (SK-MEL-2 melanoma): > 100 µM | TGI (HOP-92 NSCLC): > 100 µM | TGI (CCRF-CEM leukemia): > 100 µM | TGI (SNB-78 CNS): > 100 µM | TGI (XF 498 CNS): > 100 µM | TGI (786-0 renal): > 100 µM | TGI (SK-OV-3 ovarian): > 100 µM | TGI (HOP-18 NSCLC): 97.8 µM | TGI (A498 renal): > 100 µM | TGI (LOX IMVI melanoma): > 100 µM | TGI (A549 NSCLC): > 100 µM | TGI (SR leukemia): > 100 µM | TGI (SNB-75 CNS): > 100 µM | TGI (KM12 colon): > 100 µM | TGI (U251 CNS): > 100 µM | TGI (KM20L2 colon): > 100 µM | TGI (SN12C renal): > 100 µM | TGI (SK-MEL-28 melanoma): > 100 µM | TGI (SF-295 CNS): > 100 µM | TGI (HCC-2998 colon): > 100 µM | TGI (ACHN renal): > 100 µM | TGI (SNB-19 CNS): > 100 µM | TGI (LXFL 529 NSCLC): > 100 µM | TGI (M14 melanoma): > 100 µM | TGI (NCI-H23 lung): > 100 µM | TGI (NCI-H522 lung): > 100 µM

CSc1cc(-c2cc3ccccc3o2)oc(=O)c1C#N
TGI (SW-620 colon): > 100 µM | TGI (SK-MEL-5 melanoma): > 100 µM | TGI (CAKI-1 renal): > 100 µM | TGI (NCI-H460 lung): > 100 µM | TGI (MOLT-4 leukemia): > 100 µM | TGI (UACC-257 melanoma): > 100 µM | TGI (COLO 205 colon): > 100 µM | TGI (NCI-H226 lung): 4.31 µM | TGI (DLD-1 colon): > 100 µM | TGI (HL-60(TB) leukemia): > 100 µM | TGI (MALME-3M melanoma): > 100 µM | TGI (TK-10 renal): 73.4 µM | TGI (HT29 colon): > 100 µM | TGI (RXF 393 renal): > 100 µM | TGI (HCT-15 colon): > 100 µM | TGI (IGROV1 ovarian): > 100 µM | TGI (DMS 273 small cell lung): > 100 µM | TGI (OVCAR-4 ovarian): > 100 µM | TGI (OVCAR-8 ovarian): > 100 µM | TGI (HCT-116 colon): > 100 µM | TGI (K-562 leukemia): > 100 µM | TGI (OVCAR-5 ovarian): > 100 µM | TGI (RXF-631 renal): > 100 µM | TGI (SF-539 CNS): > 100 µM | TGI (SF-268 CNS): > 100 µM | TGI (RPMI-8226 leukemia): > 100 µM | TGI (DMS 114 small cell lung): > 100 µM | TGI (SK-MEL-2 melanoma): > 100 µM | TGI (HOP-92 NSCLC): 2.33 µM | TGI (CCRF-CEM leukemia): > 100 µM | TGI (SNB-78 CNS): > 100 µM | TGI (XF 498 CNS): > 100 µM | TGI (HOP-18 NSCLC): > 100 µM | TGI (A498 renal): > 100 µM | TGI (EKVX NSCLC): > 100 µM | TGI (LOX IMVI melanoma): > 100 µM | TGI (A549 NSCLC): > 100 µM | TGI (SR leukemia): 50 µM | TGI (SNB-75 CNS): > 100 µM | TGI (KM12 colon): > 100 µM | TGI (U251 CNS): > 100 µM | TGI (KM20L2 colon): > 100 µM | TGI (SN12C renal): > 100 µM | TGI (SK-MEL-28 melanoma): > 100 µM | TGI (SF-295 CNS): > 100 µM | TGI (HCC-2998 colon): > 100 µM | TGI (ACHN renal): > 100 µM | TGI (UO-31 renal): > 100 µM | TGI (SNB-19 CNS): > 100 µM | TGI (LXFL 529 NSCLC): > 100 µM | TGI (M14 melanoma): > 100 µM | TGI (NCI-H23 lung): > 100 µM
